{"source": "patent US7285564B2", "about": "“Substituted 4-amino-1-(pyridylmethyl)piperidine and related compounds” (Theravance, Inc., priority 2002, dated 2007)", "key": {"[1]": {"test_system": "oxotremorine-induced salivation", "test": "In vivo rat salivation assay", "method": "Female Sprague-Dawley rats weighing 200 to 300 g were anesthetized with urethane (1.5 g/kg, s.c., Sigma, St. Louis, Mo.), with a supplement of 0.25 g/kg, s.c. urethane as needed. Urethane was administered at a concentration of 0.25 g/mL.\nRats were placed on a heated blanket on their dorsal side in an inclined position (20° angle) position (head down). A swab was placed in the rat's mouth. The test compound or vehicle was administered intravenously via the tail vein. After 5 min., oxotremorine (1.0 mg/kg) was administered subcutaneously. The swab was discarded and\nReplaced by a pre-weighed swab. Saliva was then collected for 10 min. and then the swab was removed and re-weighed to determine the output of saliva. Dose-response curves were fitted with a four parameter logistic equation to obtain estimates of ID50 (dose required to produce 50% of the maximal response).\nBy comparing the ID50 values determined in the rat bladder assay and rat salivation assay, the in vivo bladder/salivation selectivity ratio was calculated for the compounds tested."}, "[2]": {"test_system": "volume-induced bladder contractions", "test": "In vivo rat bladder assay", "conditions": "intravenous; anesthetized female Sprague-Dawley rats; normalized to atropine response", "method": "Female Sprague-Dawley rats (Harlan, Indianapolis, Ind.) weighing 200 to 300 g were anesthetized with urethane (1.5 g/kg, s.c., Sigma, St. Louis, Mo.), with a supplement of 0.25 g/kg, s.c. urethane as needed. Urethane was administered at a concentration of 0.25 g/mL.\nRats were prepared for surgery by shaving the neck and abdomen and cleansing with ethanol wipes. First, an incision was made on the ventral surface. An intravenous catheter was placed by isolating and ligating the femoral vein. […]\nThereafter, an intravenous dose of the test compound was administered and changes in VIBCAmp were recorded for 15 minutes. Atropine (0.1 mg/kg) was then administered intravenously (1 mL/kg) as a positive control and VIBCAmp and data was recorded for an additional 15 minutes. […]\nAlternatively, after the vehicle, increasing cumulative intravenous doses of the test compound were administered at 15 minute intervals (1 mL/kg) and changes in VIBCAmp were recorded for 15 minutes. […]\nThe average VIBCAmp during the 5-15 minute period after test compound and atropine was determined and subtracted from the average VIBCAmp during the 5-15 minute post-vehicle period to obtain the test compound or atropine-induced change in VIBCAmp. […]"}}, "data": [{"smiles": "COc1ccncc1CN1CCC(N(CCCCCCCN2CC[C@@H](C(C(N)=O)(c3ccccc3)c3ccccc3)C2)C(C)C)CC1", "note": "[Example 1]", "values": [{"measurement": "ID50 (salivation)", "setting": "[1]; intravenous, anesthetized female Sprague-Dawley rats, oxotremorine 1.0 mg/kg s.c.", "value": "greater than or equal to 0.9 mg/kg"}, {"measurement": "ID50 bladder/salivation selectivity ratio", "setting": "[1]; rat bladder assay vs rat salivation assay", "value": "greater than 20"}, {"measurement": "ID50 (volume-induced bladder contraction amplitude)", "setting": "[2]", "value": "less than or equal to 0.1 mg/kg"}]}]}
